Marks after values point to notes of the source that are not given here.
Key:
normal individual plasma = assay: Coagulation kinetic analyses and COHF assay (TTG increase after CORM-2); format: biochemical, human; details: CORM-2 100 μM; based on individual, not group mean responses
Protocol: Plasma was rapidly thawed at 37° C. on the day of experimentation. The final volume for all subsequently described plasma sample mixtures was 359.4 μl. […] Plasma sample mixtures were placed in a disposable cup in a computer-controlled thrombelastograph® hemostasis system (Model 5000, Haemoscope Corp., Niles, Ill., USA), with addition of CaCl2 as the last step to initiate clotting. Data were collected at 37° C. for 15 min. The following elastic modulus-based parameters previously described (Benk et al., Eur J Cardio-Thorac Surg 44:551-558 (2013); Owens Clin Biochem 43:1183-1188 (2010); Balla et al., Antioxid Redox Signal 9:2119-2137 (2007); Nielsen et al., Blood Coagul Fibrinolysis 20:377-380 (2009); Nielsen et al., Blood Coagul Fibrinolysis 22:443-447 (2011); Nielsen et al., Blood Coagul Fibrinolysis 22:756-759 (2011); Nielsen et al., Blood Coagul Fibrinolysis 24:405-410 (2013)) were determined: time to maximum rate of thrombus generation (TMRTG): this is the time interval (min) observed prior to maximum speed of clot growth; maximum rate of thrombus generation (MRTG): this is the maximum velocity of clot growth observed (dynes/cm^2/sec); and total thrombus generation (TTG, dynes/cm^2), the final viscoelastic resistance observed after clot formation. […]

[1] = system: fibrin fiber network of healthy platelet rich plasma (PRP); details: PRP exposed to compound, then thrombin; SEM
Protocol: SEM-Based Analyses. […] Blood was obtained from three healthy, female subjects after written, informed consent was obtained. […] Their plasma ferritin (range 2.6-3.3 g/L), serum ferritin (range 13-28 ng/ml) and iron saturation of ferritin (range 19-33%) were normal. As noted previously, forty ml of whole blood was obtained, anticoagulated (sodium citrate, 9 parts blood to 1 part 0.105M sodium citrate), and platelet rich plasma (PRP) was generated by centrifugation of blood at 1250×g for 2 min (Nielsen et al., Blood Coagul Fibrinolysis 25:695-702 (2014); Nielsen et al., Blood Coagul Fibrinolysis 25:845-50 (2014)). […]
The cover slips were placed in 0.075 M PBS on a shaker and washed for 20 minutes. […] Once the samples had been coated they were analyzed with a scanning electron microscope (Zeiss ULTRA plus FEG SEM, Carl Zeiss Microscopy GmbH, Jena, Germany).
After visualization of the fibrin networks with SEM, micrographs were obtained at 40,000 times machine magnification. […] One fiber was randomly selected out of every block of the grid, ensuring that fiber measurements were not duplicated, and that fibers were systematically assessed to prevent observer bias (Pretorius Ultrastruct Pathol 35(4):150-154 (2001); Pretorius et al., Blood Coagul Fibrinolysis 22(8):696-700 (2011)). […] From each sample, 50 fibers were measured.

normal pooled plasma [2] = assay: Concentration-response of FeCl3 on reaction time (R), ROTEM delta thromboelastometry; format: biochemical, human; details: 2-10 μM FeCl3
Protocol: First, a concentration-response relationship of iron concentration and reaction time (R, defined as 2 mm clot strength; this is also known as clotting time in thromboelastometric analyses) was determined. The rationale for using R time was that it is the first indication of the onset of coagulation, is used in both thrombelastographic and thromboelastometric systems, and was anticipated to quickly and easily detect iron-mediated enhancement of coagulation based on previous work. This concentration-response relationship was generated with a ROTEM® delta hemostasis system (Tem Innovations GmbH, Munich, Germany) generously provided by the manufacturer. All disposable cups/pins and reagents were also provided by Tem Innovations. Plasma was rapidly thawed at 37° C. on the day of experimentation. […] After 3 min or more of incubation at room temperature, 320 μl of these iron-exposed plasmas were subsequently placed in a disposable cup, with subsequent addition of 20 μl of 200 mM CaCl2. The complete sample was mixed by pipette once, and the reaction commenced at 37° C. The R values were subsequently recorded.

normal pooled plasma [3] = assay: Effect of FeCl3 and deferoxamine chelation on reaction time (R), thrombelastograph; format: biochemical, human; details: FeCl3 10 μM; for reaction time: median (1st, 3rd quartile)
Protocol: Thrombelastograph-Based Analyses. All thrombelastograph-based experiments were performed at the University of Arizona. Frozen, citrate anticoagulated normal pooled plasma was obtained from a commercial vendor (George King Bio-Medical, Overland Park, Kans., USA) for use in subsequently described experimentation. […] Deferoxamine was obtained from a commercial vendor (Cayman Chemical Company, Ann Arbor, Mich., USA). […] Then, 336 μl of either plasma mixture was placed in a disposable cup in a computer-controlled thrombelastograph® hemostasis system (Model 5000, Haemoscope Corp., Niles, Ill., USA). […] Thus, there were four conditions: no deferoxamine, no FeCl3, (Control), deferoxamine, no FeCl3 (deferoxamine); no deferoxamine, FeCl3 (FeCl3); and finally, FeCl3 followed by deferoxamine (FeCl3+Deferoxamine). There were six replicates per condition. Thereafter, 20 μl of 200 mM CaCl2 was added as the last step to initiate clotting. Data were collected at 37° C. until R was recorded. […] There were six replicates per condition. An aliquot of 340 μl of each of the four conditions was placed into thrombelastographic cups and 20 μl of 200 mM CaCl2 was added to initiate clotting. Data were collected at 37° C. until R was recorded. As R values varied between experiments, and a fixed number of channels were available (n=4), plasma was incubated at room temperature between 45-60 min prior to initiation of coagulation. The third series of experiments was designed to decrease incubation time by increasing temperature and deferoxamine concentration without compromising the ability to detect iron-mediated changes in R values. […] The mixtures were mixed with the disposable pin, and allowed to incubate for 15 min at 37° C. Clotting was initiated by addition of 20 μl of 200 mM CaCl2 and data collected at 37° C. until R was recorded. A total of six replicates of the four experimental conditions were analyzed.

SMILES | normal individual increase in TTG secondary to CORM-2 exposure (normal individual plasma) [%] | decrease in average fibrin fiber width vs normal subjects (105±3 nm) [1] [%] | R values vs plasma without FeCl3 addition (normal pooled plasma [2]) | FeCl3-mediated decrease in R values (normal pooled plasma [3]; 45-60 minute incubation) [%] | reduction in R values compared to control plasma values (normal pooled plasma [3]; 3 min incubation series) [%] | reaction time (normal pooled plasma [3]; Fifteen min incubation at 37° C., deferoxamine 2.78 mM) | reaction time (normal pooled plasma [3]; Forty-five to sixty min incubation at room temperature, deferoxamine 1 mM) | reaction time (normal pooled plasma [3]; Three min incubation at room temperature, deferoxamine 1 mM)
[C-]#[O+].[C-]#[O+].[C-]#[O+].[C-]#[O+].[C-]#[O+].[C-]#[O+].[Cl][Ru][Cl].[Cl][Ru][Cl] [CORM-2, tricarbonyldichlororuthenium (II) dimer] | 89 | 43 |  |  |  |  |  | 
[Cl][Fe]([Cl])[Cl] [FeCl3, ferric chloride] |  | 58 | significantly smaller | 72 | 54 | 4.6 (4.4, 6.0)*† min | 5.0 (4.9, 5.1)*† min | 5.9 (5.8, 6.4)*† min

From patent publication US10012659B2, “Methods for diagnosing iron-related pathologies” (priority 2014, dated 2018)
